Assay results: patent US20150359757A1, “A METHOD FOR IMPROVING THE WELLBEING OF AN ANIMAL USING A COMPOSITION INCLUDING VITAMIN K” (priority 2013, published 2015)

Legend:
[1] = complete feed formulation of multivitamins, choline chloride and trace mineral premix; room temperature; 4 months; cited from earlier work
[2] = tested on: calcium transfer from luman-blood; details: chickens, 2.5 umole of menadione/kg (430 ugK3/Kg bwt.); cited from earlier work
[3] = tested on: layer hens; experiment: Caged layer fatigue, X-ray bone density in layer hens, Example 12; format: in vivo
[4] = tested on: prothrombin synthesis; details: in animals; cited from earlier work
[5] = tested on: chickens; experiment: Chickens hatched from breeder layer eggs, bone density and bone ash, Example 15; format: in vivo
Protocol: An experiment was conducted with laying birds and broilers: • A) Chickens hatched from the breeder layer eggs (fed 580 mg/tonne of formulated vitamin KQ) contained 50-100 ug Vitamin K1 per egg from day 1 (Example 2); • B) Chickens hatched from the breeder layer eggs were fed 4 gm/tonne vitamin K3 from day 1 contained 4-10 ug vitamin K1 per egg from day 1.
1000 chickens from each group were slaughtered at day 35 and X-rayed.

[6] = tested on: laying birds; experiment: Old laying birds feeding experiment, Example 14; format: in vivo
Protocol: An experiment was conducted with old laying birds aged 21 weeks. 20,000 birds were given 580 mg formulated vitamin KQ/tonne of food (Example 2), instead of the control diet of 4 gm/tonne Vitamin K3.

[7] = tested on: animals; details: cited from earlier work
[8] = tested on: chickens (broilers); experiment: Broiler chicken feeding experiment, Example 11; format: in vivo
Protocol: An experiment was conducted with chickens (broilers). 41,000 chickens were in a control group and were fed 4 gm/tonne vitamin K3. 41,000 thickens were in an experimental group and fed on experimental diet of 580 mg of Vitamin KQ (Example 2) formulated per tonne of food. Results were determined after the chickens were 30 days old.

[9] = tested on: turkeys; experiment: Turkey feeding experiment, Example 8; format: in vivo
Protocol: An experiment was conducted in turkeys. In this experiment all diets used in this study were identical in nutrients, the only difference being that the control diets contained 4 gm/tonne K3 and the experimental diet contained the formulated vitamin KQ at 580 mg/tonne or per 1000 L.
Three groups of 5000 turkeys (15000 turkeys per farm) were used. In the control groups 1 and 3 were fed Vitamin K3 (4 gm/tonne of food). Experimental group 2 was fed Vitamin KQ (580 mg formulated K1/K2/Example 2/tonne of food). 200 turkeys from each group were then weighed at 10 weeks.

[10] = tested on: ducks; experiment: Duck rearing/fattening trial, Example 16; format: in vivo; details: up until the 10th week, KQ 580 mg or K3 4 gm per 1000 L water
Protocol: An experiment was conducted with ducks. In the duck's rearing/fattening a similar experience was found as with chickens and turkeys with respect to observations of weight, welfare and behaviour. Duration of trial: 16 weeks • Age: Supplemented from day 7 onwards • Amount: 7,500 birds • Experimental Group: 3,500 birds • Control Group: 4,000 birds • Dosage: Treatment 580 mg KQ per 1000 L water (Example 2). Control 4 gm vitamin K3 per 1000 L water • Dosage given for 24 hours 3× per week.

[11] = from vegetable sources, humans; cited from earlier work
[12] = tested on: carboxylation of endogenous precursors; details: cited from earlier work

## CC1(S(=O)(=O)O)CC(=O)c2ccccc2C1=O.Cc1cc(C)[nH]c(=O)n1 (stereo not drawn) [MPB, menadione dimethyl-pyrimidol bisulphite]
[1]
  retained (stability): 57%

## CC1(S(=O)(=O)[O-])CC(=O)c2ccccc2C1=O.[Na+] (stereo not drawn) [MSB, menadione sodium bisulphite]
[1]
  retained (stability): 33%

## CC1=CC(=O)c2ccccc2C1=O [Vitamin K3, menadione]
[2]
  duration of inhibition of calcium transfer: 6 to 10 h
  time to inhibition of calcium transfer: ≤ 30 min
[3]; Day 27 to Day 35, 250 ug/bird/day
  Change % of RBAE bone density: −5.4%
[3]; layer hens
  effect on bone growth / strength (observation): deceased bone growth
  effect on caged layer fatigue (loss of bone density): failed to prevent the disease
[3]; layer hens, 250 ug/bird/day, Day 27
  bone density as RBAE (Radiographic bone aluminium equivalents), Day 27: 3.85 mm
[3]; layer hens, 250 ug/bird/day, Day 35
  bone density as RBAE (Radiographic bone aluminium equivalents), Day 35: 3.64 mm
[4]
  effect on prothrombin synthesis, times lower: approximately 100 times
[5]; chickens hatched from breeder layer eggs, slaughtered at day 35, K3 4 gm/tonne, KQ 580 mg/tonne of feed
  bone density as RBAE (Radiographic bone aluminium equivalents), Day 35: 3.64 mm
[5]; chickens slaughtered at day 35
  Bone Ash: 35%
[5]; day 35
  bone ash relative to that of Vitamin KQ: 83%
  bone density relative to that of Vitamin KQ: 60%
[6]; 20,000 birds, KQ 580 mg/tonne, K3 4 gm/tonne of food
  eggs per day: 14,800 eggs per day
[6]; age of layers 2 weeks
  % eggs layed: 92%
[6]; age of layers 21 weeks
  % eggs layed: 92%
[6]; age of layers 60 weeks
  % eggs layed: 74%
[6]; age of layers 90 weeks
  % eggs layed: 54%
[7]; animals
  dose at which toxic levels are reached: 0.5 mg/kg
[7]; relative to vitamin K1
  more toxic than vitamin K1: at least 50 ×
[8]; broilers
  Dropsy: 0.36%
  Marketable animals according an official poultry meat inspector: 95.25%
  Marketable feet A quality: 81.37%
  Skin infections: 3.65%
[8]; of 41,000 birds slaughtered
  birds with broken bones at slaughter: 3200 birds
[9]; turkeys
  E. coli / colibacillus infection (observation): colibacillus infection was evident
[9]; turkeys at 10 weeks, K3 4 gm/tonne of food
  weight deviation: up to 1.2 kg
[9]; turkeys at 10 weeks, KQ 580 mg/tonne, K3 4 gm/tonne of food
  average weight: 6.97 kg
[10]
  feather picking (observation): extensive feather picking

## CC1=C(C/C=C(\C)CCC[C@H](C)CCC[C@H](C)CCCC(C)C)C(=O)c2ccccc2C1=O [vitamin K1, phylloquinone]
[11]
  bioavailability: 4.7-15%
[7]; animals
  dose consumed that does not result in any toxicity: 25 gm/kg
[12]
  relative activity versus menadione Vitamin K3: 4 times
